Where “and” joins values, the source holds several entries; their conditions need not be identical. Equal entries are not always repeated. Where two headings read alike, the source gives them in different places.
How the values were obtained:
11β-HSD1 [1] = biological target: T1, 11β-HSD1 (Homo sapiens (Human), UniProt P28845)
[2] = fraction unbound in human plasma (equilibrium dialysis), Biological Test Example 5; assay type: in vitro ADME; conditions: for Biological Test Example 5 (%): fraction unbound in human plasma
[3] = biological target: human recombinant cytochrome P450 3A4 (Homo sapiens (Human), UniProt P08684); assay: CYP3A4 inhibition, Biological Test Example 6; assay type: in vitro ADME
Sequence of human recombinant cytochrome P450 3A4 (P08684 whole entry): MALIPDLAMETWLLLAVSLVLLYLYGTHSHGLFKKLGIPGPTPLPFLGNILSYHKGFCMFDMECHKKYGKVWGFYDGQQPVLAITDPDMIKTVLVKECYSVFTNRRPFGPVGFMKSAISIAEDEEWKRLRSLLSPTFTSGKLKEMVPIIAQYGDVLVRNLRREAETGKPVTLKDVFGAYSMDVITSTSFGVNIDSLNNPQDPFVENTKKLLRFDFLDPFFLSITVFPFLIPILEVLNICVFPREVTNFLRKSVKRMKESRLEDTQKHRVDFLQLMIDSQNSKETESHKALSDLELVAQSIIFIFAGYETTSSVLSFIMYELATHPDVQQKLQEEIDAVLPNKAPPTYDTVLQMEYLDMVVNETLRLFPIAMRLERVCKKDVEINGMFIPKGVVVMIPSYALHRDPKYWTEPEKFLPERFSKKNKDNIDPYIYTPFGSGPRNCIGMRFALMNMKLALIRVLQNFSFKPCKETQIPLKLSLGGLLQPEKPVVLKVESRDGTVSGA

[4] = biological target: human recombinant cytochrome P450 2C19 (Homo sapiens (Human), UniProt P33261); assay: CYP2C19 inhibition, Biological Test Example 8; assay type: in vitro ADME; conditions: read-out: Biological Test Example 8 CYP2C19, IC50
Sequence of human recombinant cytochrome P450 2C19 (P33261 whole entry): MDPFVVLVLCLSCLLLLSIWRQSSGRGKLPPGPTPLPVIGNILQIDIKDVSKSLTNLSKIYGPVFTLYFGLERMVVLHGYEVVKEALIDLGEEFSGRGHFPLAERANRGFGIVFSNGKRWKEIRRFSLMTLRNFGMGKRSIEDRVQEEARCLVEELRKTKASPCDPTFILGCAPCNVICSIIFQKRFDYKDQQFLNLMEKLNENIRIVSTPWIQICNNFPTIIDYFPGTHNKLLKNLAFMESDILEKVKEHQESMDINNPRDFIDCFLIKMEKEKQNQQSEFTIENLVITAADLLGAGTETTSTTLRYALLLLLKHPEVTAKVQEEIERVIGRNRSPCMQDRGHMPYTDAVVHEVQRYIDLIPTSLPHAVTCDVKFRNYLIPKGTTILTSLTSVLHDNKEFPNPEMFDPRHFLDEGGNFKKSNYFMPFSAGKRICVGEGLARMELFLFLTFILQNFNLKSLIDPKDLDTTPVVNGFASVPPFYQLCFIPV

[5] = biological target: human recombinant cytochrome P450 2C9 (Homo sapiens (Human), UniProt P11712); assay: CYP2C9 inhibition ([O-methyl-14C]-Naproxen), Biological Test Example 7; assay type: in vitro ADME
Sequence of human recombinant cytochrome P450 2C9 (P11712 whole entry): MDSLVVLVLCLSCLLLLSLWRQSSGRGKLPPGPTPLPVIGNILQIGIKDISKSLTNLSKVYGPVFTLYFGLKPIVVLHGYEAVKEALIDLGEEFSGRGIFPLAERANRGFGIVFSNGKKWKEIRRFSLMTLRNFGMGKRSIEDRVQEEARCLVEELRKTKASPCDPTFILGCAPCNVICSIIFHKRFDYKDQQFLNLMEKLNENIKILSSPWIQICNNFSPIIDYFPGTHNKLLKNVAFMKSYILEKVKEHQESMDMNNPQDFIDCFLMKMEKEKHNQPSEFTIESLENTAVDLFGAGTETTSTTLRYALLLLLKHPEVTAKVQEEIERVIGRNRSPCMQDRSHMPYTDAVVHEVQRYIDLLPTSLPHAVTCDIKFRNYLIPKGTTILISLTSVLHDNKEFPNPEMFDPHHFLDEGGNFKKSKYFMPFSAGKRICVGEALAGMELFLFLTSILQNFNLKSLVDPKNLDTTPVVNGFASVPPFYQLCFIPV

human CYP2C9 = human CYP2C9 (Homo sapiens (Human), UniProt P11712); assay: CYP2C9 inhibition (Invitrogen kit, OOMR fluorogenic substrate), Biological Test Example 9; assay type: in vitro ADME; conditions: read-out: Biological Test Example 9 CYP2C9 IC50
Sequence of human CYP2C9 (P11712 whole entry): as above

11β-HSD1 [6] = biological target: T1, 11β-HSD1; assay type: biochemical; conditions: human liver microsomes, 100% indicates no inhibition, zero or below zero indicates complete inhibition
[7] = slurry experiment on stability of the crystal form (XRPD); conditions: 30 minutes
[8] = human recombinant CYP2C19, [N-methyl-14C]-Diazepam

T1 sequence (P28845 whole entry): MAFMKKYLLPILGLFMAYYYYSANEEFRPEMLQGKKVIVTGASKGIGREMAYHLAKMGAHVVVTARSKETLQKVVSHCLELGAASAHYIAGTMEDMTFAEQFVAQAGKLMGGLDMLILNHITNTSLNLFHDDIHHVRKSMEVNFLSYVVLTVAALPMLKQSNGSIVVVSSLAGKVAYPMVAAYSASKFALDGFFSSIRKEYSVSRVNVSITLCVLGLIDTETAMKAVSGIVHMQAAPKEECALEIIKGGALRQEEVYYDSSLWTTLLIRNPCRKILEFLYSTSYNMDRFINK

C[C@@H](c1ccc(-c2ccn(C3CC3)c(=O)c2)cc1)N1CCC(CC(C)(C)O)(C2CCOCC2)OC1=O (single isomer, unassigned) [Example 91 Isomer 2]
Average % inhibition at 100 nM (11β-HSD1 [1]; Biological Test Example 1): 13.8%

C[C@@H](c1ccc(-c2ccn(C3CC3)c(=O)c2)cc1)N1CCC(CC(C)(C)C)(CC(C)(C)O)OC1=O (single isomer, unassigned) [Example 94 Isomer 1]
Average % inhibition at 100 nM (11β-HSD1 [1]; Biological Test Example 1, listed as EXAMPLE 94 Isomer 1): 41.9%

C[C@@H](c1ccc(-c2ccn(C3CC3)c(=O)c2)cc1)N1CCC(CC(C)(C)C)(CC(C)(C)O)OC1=O (single isomer, unassigned) [Example 94 Isomer 2]
Average % inhibition at 100 nM (11β-HSD1 [1]; Biological Test Example 1, listed as EXAMPLE 94 Isomer 2): 8.2%

C[C@@H](c1ccc(-c2ccn(C3CC3)c(=O)c2)cc1)N1CCC(CC(C)(C)O)(C2CC(F)(F)C2)OC1=O (single isomer, unassigned) [Example 95 Isomer 2]
Average % inhibition at 100 nM (11β-HSD1 [1]; Biological Test Example 1): 8.0%

C[C@@H](c1ccc(-c2ccc(=O)n(C)c2)cc1)N1CC[C@](CC(C)(C)NS(C)(=O)=O)(c2ccccc2)OC1=O [Example 11, N-(2-methyl-1-((S)-3-((S)-1-(4-(1-methyl-6-oxo-1,6-dihydropyridin-3-yl)phenyl)ethyl)-2-oxo-6-phenyl-1,3-oxazinan-6-yl)propan-2-yl)methanesulfonamide]
Biological Test Example 5 (fraction unbound in human plasma) [2]: 0.7%
IC50 ([3]; human recombinant CYP3A4): 14.1 µM

C[C@@H](c1ccc(-c2ccc(=O)n(C)c2)cc1)N1CC[C@](CC(C)(C)N(C)S(C)(=O)=O)(c2ccccc2)OC1=O [Example 12, N-methyl-N-(2-methyl-1-((S)-3-((S)-1-(4-(1-methyl-6-oxo-1,6-dihydropyridin-3-yl)phenyl)ethyl)-2-oxo-6-phenyl-1,3-oxazinan-6-yl)propan-2-yl)methanesulfonamide]
Biological Test Example 5 (fraction unbound in human plasma) [2]: 0.4%
IC50 ([3]; human recombinant CYP3A4): 4.9 µM
IC50 (human CYP2C9; Invitrogen kit, OOMR fluorogenic substrate): 2.5 µM

C[C@@H](c1ccc(-c2ccn(C)c(=O)c2)cc1)N1CC[C@](CC(C)(C)O)(c2ccccc2)OC1=O [Example 48, (S)-6-(2-hydroxy-2-methylpropyl)-3-((S)-1-(4-(1-methyl-2-oxo-1,2-dihydropyridin-4-yl)phenyl)ethyl)-6-phenyl-1,3-oxazinan-2-one]
Biological Test Example 5 (%) [2]: 8.7%
IC50 [3]: > 50 µM
IC50 [5]: > 50 µM
IC50 [4]: > 50 µM
IC50 (human CYP2C9): 30 µM

CC[C@@H](c1ccc(-c2ccc(=O)n(CC)c2)cc1)N1CC[C@](CC(C)(C)O)(c2ccccc2)OC1=O [Example 52, (S)-3-((S)-1-(4-(1-ethyl-6-oxo-1,6-dihydropyridin-3-yl)phenyl)propyl)-6-(2-hydroxy-2-methylpropyl)-6-phenyl-1,3-oxazinan-2-one]
Biological Test Example 5 (%) [2]: 9.0%

CC[C@@H](c1ccc(-c2ccc(=O)n(C)c2)cc1)N1CC[C@](CC(C)(C)O)(c2ccccc2)OC1=O [Example 54, (S)-6-(2-hydroxy-2-methylpropyl)-3-((S)-1-(4-(1-methyl-6-oxo-1,6-dihydropyridin-3-yl)phenyl)propyl)-6-phenyl-1,3-oxazinan-2-one]
Biological Test Example 5 (%) [2]: 9.1%
IC50 [3]: > 50 µM
IC50 [5]: > 50 µM

CC[C@@H](c1ccc(-c2ccn(C)c(=O)c2)cc1)N1CC[C@](CC(C)(C)O)(c2ccccc2)OC1=O [Example 55, (S)-6-(2-hydroxy-2-methylpropyl)-3-((S)-1-(4-(1-methyl-2-oxo-1,2-dihydropyridin-4-yl)phenyl)propyl)-6-phenyl-1,3-oxazinan-2-one]
Biological Test Example 5 (%) [2]: 7.1%

C[C@@H](c1ccc(-c2ccn(CC(F)(F)F)c(=O)c2)cc1)N1CC[C@](CC(C)(C)O)(c2ccccc2)OC1=O [Example 66, (S)-6-(2-hydroxy-2-methylpropyl)-3-((S)-1-(4-(2-oxo-1-(2,2,2-trifluoroethyl)-1,2-dihydropyridin-4-yl)phenyl)ethyl)-6-phenyl-1,3-oxazinan-2-one]
Biological Test Example 5 (%) [2]: 5.5%

C[C@@H](c1ccc(-c2ccc(=O)n(CC3CC3)c2)cc1)N1CC[C@](CC(C)(C)O)(c2ccccc2)OC1=O [Example 76, 3-{(S)-1-[4-(1-Cyclopropylmethyl-6-oxo-1,6-dihydro-pyridin-3-yl)-phenyl]-ethyl}-(S)-6-(2-hydroxy-2-methyl-propyl)-6-phenyl-[1,3]oxazinan-2-one]
Average % control inhibition at 100 nM (11β-HSD1 [6]): 17 % control

COC[C@]1(c2ccccc2)CCN([C@@H](C)c2ccc(-c3ccn(C)c(=O)c3)cc2)C(=O)O1 [Example 78, (R)-6-Methoxymethyl-3-{(S)-1-[4-(1-methyl-2-oxo-1,2-dihydro-pyridin-4-yl)-phenyl]-ethyl}-6-phenyl-[1,3]oxazinan-2-one]
Average % control inhibition at 100 nM (11β-HSD1 [6]): 58 % control

C[C@@H](c1ccc(-c2cc(=O)n(C)cc2F)cc1)N1CC[C@](CC(C)(C)O)(c2ccccc2)OC1=O [Example 79, 3-{(S)-1-[4-(5-Fluoro-1-methyl-2-oxo-1,2-dihydro-pyridin-4-yl)-phenyl]-ethyl}-(S)-6-(2-hydroxy-2-methyl-propyl)-6-phenyl-[1,3]oxazinan-2-one]
Average % control inhibition at 100 nM (11β-HSD1 [6]): 15 % control
IC50 [3]: > 50 µM
IC50 [5]: > 50 µM
IC50 [4]: > 50 µM

C[C@@H](c1ccc(-c2ccn(CC(C)(C)O)c(=O)c2)cc1)N1CC[C@](CC(C)(C)O)(c2ccccc2)OC1=O [Example 80, (S)-6-(2-Hydroxy-2-methyl-propyl)-3-((S)-1-{4-[1-(2-hydroxy-2-methyl-propyl)-2-oxo-1,2-dihydro-pyridin-4-yl]-phenyl}-ethyl)-6-phenyl-[1,3]oxazinan-2-one]
Average % control inhibition at 100 nM (11β-HSD1 [6]): 37 % control
IC50 [3]: > 50 µM
IC50 [5]: > 50 µM

COCC(C)Cn1ccc(-c2ccc([C@H](C)N3CC[C@](CC(C)(C)O)(c4ccccc4)OC3=O)cc2)cc1=O (stereo partly drawn) [Example 81, (S)-6-(2-Hydroxy-2-methyl-propyl)-3-((S)-1-{4-[1-(3-methoxy-2-methyl-propyl)-2-oxo-1,2-dihydro-pyridin-4-yl]-phenyl}-ethyl)-6-phenyl-[1,3]oxazinan-2-one]
Average % control inhibition at 100 nM (11β-HSD1 [6]): 11 % control

CC(CO)Cn1ccc(-c2ccc([C@H](C)N3CC[C@](CC(C)(C)O)(c4ccccc4)OC3=O)cc2)cc1=O (stereo partly drawn) [Example 82, (S)-6-(2-Hydroxy-2-methyl-propyl)-3-((S)-1-{4-[1-(3-hydroxy-2-methyl-propyl)-2-oxo-1,2-dihydro-pyridin-4-yl]-phenyl}-ethyl)-6-phenyl-[1,3]oxazinan-2-one]
Average % control inhibition at 100 nM (11β-HSD1 [6]): −12 % control

COC(C)(C)Cn1ccc(-c2ccc([C@H](C)N3CC[C@](CC(C)(C)O)(c4ccccc4)OC3=O)cc2)cc1=O [Example 83, (S)-6-(2-Hydroxy-2-methyl-propyl)-3-(1-{4-[1-(2-methoxy-2-methyl-propyl)-2-oxo-1,2-dihydro-pyridin-4-yl]-phenyl}-ethyl)-6-phenyl-[1,3]oxazinan-2-one]
Average % control inhibition at 100 nM (11β-HSD1 [6]): 54 % control

C[C@@H](c1ccc(-c2ccn(CC(C)(C)CO)c(=O)c2)cc1)N1CC[C@](CC(C)(C)O)(c2ccccc2)OC1=O [Example 90, 3-((S)-1-{4-[1-(3-Hydroxy-2,2-dimethyl-propyl)-2-oxo-1,2-dihydro-pyridin-4-yl]-phenyl}-ethyl)-(S)-6-(2-hydroxy-2-methyl-propyl)-6-phenyl-[1,3]oxazinan-2-one]
Average % control inhibition at 100 nM (11β-HSD1 [6]): 4 % control

C[C@@H](c1ccc(-c2ccn(C)c(=O)c2)cc1)N1CC[C@](CC(C)(C)O)(c2ccccc2)OC1=O [anhydrous form of Example 48, (S)-6-(2-hydroxy-2-methylpropyl)-3-((S)-1-(4-(1-methyl-2-oxo-1,2-dihydropyridin-4-yl)phenyl)ethyl)-6-phenyl-1,3-oxazinan-2-one]
remaining in the anhydrous state during the measurement by XRPD [7]: did not remain in the anhydrous state

C[C@@H](c1ccc(-c2ccn(C3CC3)c(=O)c2)cc1)N1CC[C@](CC(C)(C)O)(c2ccccc2)OC1=O [anhydrous form of Example 75, 3-{(S)-1-[4-(1-Cyclopropyl-2-oxo-1,2-dihydro-pyridin-4-yl)-phenyl]-ethyl}-(S)-6-(2-hydroxy-2-methyl-propyl)-6-phenyl-[1,3]oxazinan-2-one]
remaining in the anhydrous state during the measurement by XRPD [7]: did not remain in the anhydrous state

Source: patent publication US8575157B2, “Cyclic inhibitors of 11beta-hydroxysteroid dehydrogenase 1” (Vitae Pharmaceuticals, Inc., priority 2010, dated 2013)
